The values that follow come from article PMC9697349, “Mouse Pharmacokinetics and In Vitro Metabolism of SH-11037 and SH-11008, Synthetic Homoisoflavonoids for Retinal Neovascularization” (Pharmaceutics, 2022).

The data set can be described thus: Metabolic stability of SH-11008 in human liver S9 fractions. The format is in vitro ADME. How it is done: For studies using NADPH or PAPS as a cofactor, 4 μL of SH-11008 (40 μM) solution in 40 vol% CH3CN were mixed with 40 μL of 4 mg protein/mL HLS9 or MLS9 fractions diluted in 0.1 M potassium phosphate buffer (pH 7.4) and 100 μL of 0.1 M potassium phosphate buffer (pH 7.4). When using UDPGA as a cofactor, 32 μL of UGT Reaction Mix Solution B and 68 μL of de-ionized water were used instead of 100 μL of 0.1 M potassium phosphate buffer (pH 7.4). The mixture was warmed at 37 °C for 5 min. The reaction was then initiated by adding 16 μL of 10 mM cofactor dissolved in de-ionized water. The assay condition for UDPGA was used for metabolic stability studies conducted with a mixture of the three cofactors. The reaction was terminated at selected times by adding 160 μL of ice-cold CH3CN containing glipizide (500 ng/mL) as the IS. The resulting mixture was vortexed, sonicated, and centrifuged at 3000× g for 20 min. Aliquots of the supernatant were subjected to LC-MS/MS analysis described below in Section 2.6.2.
The LC-MS/MS system consisted of Agilent 1290 Infinity HPLC system and Agilent 6530 Accurate-Mass Quadrupole Time-of-Flight (Q-TOF) mass spectrometer equipped with dual AJS ESI ion source (Agilent Technologies Korea, Seoul, Korea). Chromatographic separation was performed on an Agilent Eclipse Plus C18 column (2.1 × 100 mm, 3.5 μm) with a Phenomenex Security Guard C18 guard column (4 × 20 mm) maintained at 40 °C. The mobile phase consisted of 0.1% formic acid in deionized water (A) and 0.1% formic acid in CH3CN (B): 0~2 min 5% B, 2~7 min to 95% B, and 7~10 min 95% B. Total run time including a 5 min equilibration time was 15 min. The flow rate was 0.4 mL/min. The injection volume was 5 µL. The mass spectrometer was operated in a positive Auto MS/MS scan mode with a full scan mass range of m/z 100–1000, fragmentor voltage 150 V, and CE 30 eV, selecting the two most intense precursor ions for collision-induced dissociation. Putative metabolites were identified using Agilent Mass Hunter Metabolite ID software (ver.B.04.00) followed by manual interpretation of the spectral data. Chromatograms and mass spectra were extracted using Agilent Mass Hunter Qualitative Analysis software (ver. B.05.00).
Pharmacokinetic parameters were calculated by noncompartmental analysis of plasma concentration versus time profiles using PKSolver. The scaling factors of mice and human, half-life (t1/2), intrinsic clearance (CLint), hepatic clearance (CLH), and hepatic extraction ratio (EH) were from the in vitro studies as described previously. […] The fraction of parent drug converted to the metabolite (fm) was calculated as follows:fm (%) = (AUC(m) × CL(m))/D × MWparent/MWmetabolite × 100,(1) where D is dose of the parent drug, AUC(m) is area under the curve for the metabolite after a dose of parent drug, CL(m) is CL of metabolite, and MW is molecular weight.

Take `COc1ccc(CC2COc3cc(OC)c(OC)c(OC)c3C2=O)cc1O` (centres unmarked) [SH-11008]: where the note is “HLS9, NADPH 1 mM only, 30 min”, the “metabolic stability in the presence of NADPH” value is given as “stable”. The half-life (usually the time needed for the level to fall by half in the phase considered) at 1 µM (human, liver S9 fractions, SH-11008 1 µM, HLS9 1 mg protein/mL, mixture of NADPH, UDPGA and PAPS (1 mM), 37 °C) is 36 s. The EH (human, predicted hepatic extraction ratio from HLS9 data) was 0.99. Also, the CLH (human, predicted with the well-stirred model from HLS9 data) is 1.19 L/h/kg. Besides, under “liver S9 fractions, human, scaled from in vitro t1/2 in HLS9”, the CLint scaled (in general, a measure of how fast metabolising enzymes remove a compound, apart from limits set by blood flow) at 1 µM turned out to be 215 L/h/kg.
